Assays:
Experiment in all cases: relative viability (nuclei count vs DMSO), 5 days (fraction); higher = more cells survive
NCI-H2085 = system: NCI-H2085
Outline: (§1)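 Five library-drug doses in √10 steps were combined with a fixed anchor-drug dose, or a single drug was given alone, by pin tool to lung cancer cell lines in 1536-well plates the day after seeding. Nuclei were stained and counted after 5 days. Relative viability is the nuclei count in treated wells over that in vehicle wells, taken as the median of duplicate plates.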

201T = system: 201T
Outline: as §1

LU99A = system: LU99A
Outline: as §1

BEN = system: BEN
Outline: as §1

HOP-62 = system: HOP-62
Outline: as §1

PC-3 [JPC-3] = system: PC-3 [JPC-3]
Outline: as §1

LCLC-97TM1 = system: LCLC-97TM1
Outline: as §1

NCI-H1666 = system: NCI-H1666
Outline: as §1

NCI-H1437 = system: NCI-H1437
Outline: as §1

EKVX = system: EKVX
Outline: as §1

NCI-H2087 = system: NCI-H2087
Outline: as §1

SW 1573 = system: SW 1573
Outline: as §1

NCI-H358 = system: NCI-H358
Outline: as §1

NCI-H647 = system: NCI-H647
Outline: as §1

H3255 = system: H3255
Outline: as §1

NCI-H2342 = system: NCI-H2342
Outline: as §1

LOU-NH91 = system: LOU-NH91
Outline: as §1

NCI-H1395 = system: NCI-H1395
Outline: as §1

COR-L 105 = system: COR-L 105
Outline: as §1

NCI-H1975 = system: NCI-H1975
Outline: as §1

EPLC-272H = system: EPLC-272H
Outline: as §1

HCC-827 = system: HCC-827
Outline: as §1

HCC-44 = system: HCC-44
Outline: as §1

Compound `CC1(C)CCC(c2ccc(Cl)cc2)=C(CN2CCN(c3ccc(C(=O)NS(=O)(=O)c4ccc(N[C@H](CCN5CCOCC5)CSc5ccccc5)c(S(=O)(=O)C(F)(F)F)c4)cc3)CC2)C1` [Navitoclax] + Cc1cc(Nc2cc(N3CCN(C)CC3)nc(Sc3ccc(NC(=O)C4CC4)cc3)n2)n[nH]1 [Tozasertib] (partner 0.1 µM) has a relative viability (NCI-H2085; first compound 0.005 µM) of 0.804, a relative viability (NCI-H2085; first compound 0.01581 µM) of 0.734 and a relative viability (NCI-H2085; first compound 0.05 µM) of 0.811. It also gave a relative viability (NCI-H2085; first compound 0.1581 µM) of 0.772, a relative viability (NCI-H2085; first compound 0.5 µM) of 0.752 and a relative viability (201T; first compound 0.005 µM) of 0.975. The relative viability (201T; first compound 0.01581 µM) was 1.04, the relative viability (201T; first compound 0.05 µM) was 0.778 and the relative viability (201T; first compound 0.1581 µM) was 0.931. It also gave a relative viability (201T; first compound 0.5 µM) of 1.01, a relative viability (LU99A; first compound 0.005 µM) of 0.264 and a relative viability (LU99A; first compound 0.01581 µM) of 0.355. The relative viability (LU99A; first compound 0.05 µM) was 0.244, the relative viability (LU99A; first compound 0.1581 µM) was 0.337 and the relative viability (LU99A; first compound 0.5 µM) was 0.37. The relative viability (BEN; first compound 0.005 µM) was 0.536, the relative viability (BEN; first compound 0.01581 µM) was 0.568 and the relative viability (BEN; first compound 0.05 µM) was 0.522. It also gave a relative viability (BEN; first compound 0.1581 µM) of 0.451, a relative viability (BEN; first compound 0.5 µM) of 0.421 and a relative viability (HOP-62; first compound 0.005 µM) of 0.389. The relative viability (HOP-62; first compound 0.01581 µM) was 0.4, the relative viability (HOP-62; first compound 0.05 µM) was 0.366 and the relative viability (HOP-62; first compound 0.1581 µM) was 0.299. The relative viability (HOP-62; first compound 0.5 µM) was 0.374, the relative viability (PC-3 [JPC-3]; first compound 0.005 µM) was 0.846 and the relative viability (PC-3 [JPC-3]; first compound 0.01581 µM) was 0.892. It also gave a relative viability (PC-3 [JPC-3]; first compound 0.05 µM) of 0.935, a relative viability (PC-3 [JPC-3]; first compound 0.1581 µM) of 0.898 and a relative viability (PC-3 [JPC-3]; first compound 0.5 µM) of 0.876. For the same compound, the relative viability (LCLC-97TM1; first compound 0.005 µM) was 0.238, the relative viability (LCLC-97TM1; first compound 0.01581 µM) was 0.164 and the relative viability (LCLC-97TM1; first compound 0.05 µM) was 0.255. It also gave a relative viability (LCLC-97TM1; first compound 0.1581 µM) of 0.193, a relative viability (LCLC-97TM1; first compound 0.5 µM) of 0.224 and a relative viability (NCI-H1666; first compound 0.005 µM) of 0.626. It also gave a relative viability (NCI-H1666; first compound 0.01581 µM) of 0.638, a relative viability (NCI-H1666; first compound 0.05 µM) of 0.61 and a relative viability (NCI-H1666; first compound 0.1581 µM) of 0.587. For the same compound, the relative viability (NCI-H1666; first compound 0.5 µM) was 0.666, the relative viability (NCI-H1437; first compound 0.005 µM) was 0.408 and the relative viability (NCI-H1437; first compound 0.01581 µM) was 0.407. It also gave a relative viability (NCI-H1437; first compound 0.05 µM) of 0.357, a relative viability (NCI-H1437; first compound 0.1581 µM) of 0.46 and a relative viability (NCI-H1437; first compound 0.5 µM) of 0.386. The relative viability (EKVX; first compound 0.005 µM) was 0.411, the relative viability (EKVX; first compound 0.01581 µM) was 0.388 and the relative viability (EKVX; first compound 0.05 µM) was 0.323. The relative viability (EKVX; first compound 0.1581 µM) was 0.44, the relative viability (EKVX; first compound 0.5 µM) was 0.294 and the relative viability (NCI-H2087; first compound 0.005 µM) was 0.245. For the same compound, the relative viability (NCI-H2087; first compound 0.01581 µM) was 0.236, the relative viability (NCI-H2087; first compound 0.1581 µM) was 0.197 and the relative viability (NCI-H2087; first compound 0.5 µM) was 0.294. The relative viability (SW 1573; first compound 0.005 µM) was 0.186, the relative viability (SW 1573; first compound 0.01581 µM) was 0.147 and the relative viability (SW 1573; first compound 0.05 µM) was 0.173. For the same compound, the relative viability (SW 1573; first compound 0.1581 µM) was 0.176, the relative viability (SW 1573; first compound 0.5 µM) was 0.103 and the relative viability (NCI-H358; first compound 0.005 µM) was 0.1. For the same compound, the relative viability (NCI-H358; first compound 0.01581 µM) was 0.0998, the relative viability (NCI-H358; first compound 0.05 µM) was 0.105 and the relative viability (NCI-H358; first compound 0.1581 µM) was 0.122. The relative viability (NCI-H358; first compound 0.5 µM) was 0.109, the relative viability (NCI-H647; first compound 0.005 µM) was 0.301 and the relative viability (NCI-H647; first compound 0.01581 µM) was 0.268. The relative viability (NCI-H647; first compound 0.05 µM) was 0.292, the relative viability (NCI-H647; first compound 0.1581 µM) was 0.27 and the relative viability (NCI-H647; first compound 0.5 µM) was 0.251. The relative viability (H3255; first compound 0.005 µM) was 0.532, the relative viability (H3255; first compound 0.01581 µM) was 0.705 and the relative viability (H3255; first compound 0.05 µM) was 0.673. The relative viability (H3255; first compound 0.1581 µM) was 0.585, the relative viability (H3255; first compound 0.5 µM) was 0.609 and the relative viability (NCI-H2342; first compound 0.005 µM) was 0.537. The relative viability (NCI-H2342; first compound 0.01581 µM) was 0.471, the relative viability (NCI-H2342; first compound 0.05 µM) was 0.558 and the relative viability (NCI-H2342; first compound 0.1581 µM) was 0.543. The relative viability (NCI-H2342; first compound 0.5 µM) was 0.548, the relative viability (LOU-NH91; first compound 0.005 µM) was 0.667 and the relative viability (LOU-NH91; first compound 0.01581 µM) was 0.627. For the same compound, the relative viability (LOU-NH91; first compound 0.05 µM) was 0.714, the relative viability (LOU-NH91; first compound 0.1581 µM) was 0.655 and the relative viability (LOU-NH91; first compound 0.5 µM) was 0.563. For the same compound, the relative viability (NCI-H1395; first compound 0.005 µM) was 0.703, the relative viability (NCI-H1395; first compound 0.01581 µM) was 0.738 and the relative viability (NCI-H1395; first compound 0.05 µM) was 0.757. For the same compound, the relative viability (NCI-H1395; first compound 0.1581 µM) was 0.787, the relative viability (NCI-H1395; first compound 0.5 µM) was 0.81 and the relative viability (COR-L 105; first compound 0.005 µM) was 0.353. The relative viability (COR-L 105; first compound 0.01581 µM) was 0.338, the relative viability (COR-L 105; first compound 0.05 µM) was 0.369 and the relative viability (COR-L 105; first compound 0.1581 µM) was 0.348. For the same compound, the relative viability (COR-L 105; first compound 0.5 µM) was 0.29, the relative viability (NCI-H1975; first compound 0.005 µM) was 0.791 and the relative viability (NCI-H1975; first compound 0.01581 µM) was 0.917. It also gave a relative viability (NCI-H1975; first compound 0.05 µM) of 0.714, a relative viability (NCI-H1975; first compound 0.1581 µM) of 0.734 and a relative viability (NCI-H1975; first compound 0.5 µM) of 0.815. The relative viability (EPLC-272H; first compound 0.005 µM) was 0.28, the relative viability (EPLC-272H; first compound 0.05 µM) was 0.313 and the relative viability (EPLC-272H; first compound 0.1581 µM) was 0.204. For the same compound, the relative viability (EPLC-272H; first compound 0.5 µM) was 0.242, the relative viability (HCC-827; first compound 0.005 µM) was 0.437 and the relative viability (HCC-827; first compound 0.01581 µM) was 0.453. For the same compound, the relative viability (HCC-827; first compound 0.05 µM) was 0.384, the relative viability (HCC-827; first compound 0.1581 µM) was 0.39 and the relative viability (HCC-827; first compound 0.5 µM) was 0.454. It also gave a relative viability (HCC-44; first compound 0.05 µM) of 1.1 and a relative viability (HCC-44; first compound 0.5 µM) of 0.613.

Reference: the supplement of paper PMC10307832
